Reference: PubChem BioAssay (NCI)
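Five concentrations, 48 hours, 96-well plates. GI50 = concentration required for 50% inhibition of growth. At the TGI there is no net growth.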

Key:
Test in all cases: NCI anticancer screen, dose series, 48 h
[1] = test system: 786-0 renal
[2] = test system: A549 NSCLC
[3] = test system: ACHN renal
[4] = test system: BT-549 breast
[5] = test system: CAKI-1 renal
[6] = test system: CCRF-CEM leukemia
[7] = test system: COLO 205 colon
[8] = test system: DU-145 prostate
[9] = test system: EKVX NSCLC
[10] = test system: HCT-116 colon
[11] = test system: HCT-15 colon
[12] = test system: HL-60(TB) leukemia
[13] = test system: HOP-62 NSCLC
[14] = test system: HOP-92 NSCLC
[15] = test system: HS 578T breast
[16] = test system: HT29 colon
[17] = test system: IGROV1 ovarian
[18] = test system: K-562 leukemia
[19] = test system: KM12 colon
[20] = test system: M14 melanoma
[21] = test system: MALME-3M melanoma
[22] = test system: MCF7 breast
[23] = test system: MDA-MB-231 breast
[24] = test system: MDA-MB-435
[25] = test system: MOLT-4 leukemia
[26] = test system: NCI-H23 lung
[27] = test system: NCI-H460 lung
[28] = test system: NCI-H522 lung
[29] = test system: NCI/ADR-RES ovarian
[30] = test system: OVCAR-3 ovarian
[31] = test system: OVCAR-5 ovarian
[32] = test system: OVCAR-8 ovarian
[33] = test system: PC-3 prostate
[34] = test system: RPMI-8226 leukemia
[35] = test system: SF-268 CNS
[36] = test system: SF-295 CNS
[37] = test system: SF-539 CNS
[38] = test system: SK-MEL-2 melanoma
[39] = test system: SK-MEL-5 melanoma
[40] = test system: SK-OV-3 ovarian
[41] = test system: SN12C renal
[42] = test system: SNB-19 CNS
[43] = test system: SR leukemia
[44] = test system: SW-620 colon
[45] = test system: T-47D breast
[46] = test system: TK-10 renal
[47] = test system: U251 CNS
[48] = test system: UACC-257 melanoma
[49] = test system: UACC-62 melanoma
[50] = test system: UO-31 renal
[51] = test system: HCC-2998 colon
[52] = test system: LOX IMVI melanoma
[53] = test system: OVCAR-4 ovarian
[54] = test system: RXF 393 renal
[55] = test system: SK-MEL-28 melanoma
[56] = test system: A498 renal
[57] = test system: NCI-H226 lung
[58] = test system: SNB-75 CNS

Compound: c1ccc2c(c1)SC1=Nc3sc4ccccc4[n+]3CN12
- TGI [1]: 83.7 µM
- TGI [2]: 25.5 µM
- TGI [3]: > 100 µM
- TGI [4]: > 100 µM
- TGI [5]: 42.4 µM
- TGI [6]: > 100 µM
- TGI [7]: 10.9 µM
- TGI [8]: > 100 µM
- TGI [9]: 53.5 µM
- TGI [10]: > 100 µM
- TGI [11]: > 100 µM
- TGI [12]: 82.3 µM
- TGI [13]: > 100 µM
- TGI [14]: 47.5 µM
- TGI [15]: 67.9 µM
- TGI [16]: 37.7 µM
- TGI [17]: 46.3 µM
- TGI [18]: 81.6 µM
- TGI [19]: 29.3 µM
- TGI [20]: 66.2 µM
- TGI [21]: 37.6 µM
- TGI [22]: 42.9 µM
- TGI [23]: 49.2 µM
- TGI [24]: 49.5 µM
- TGI [25]: 39 µM
- TGI [26]: 59.8 µM
- TGI [27]: 44.1 µM
- TGI [28]: 9.03 µM
- TGI [29]: > 100 µM
- TGI [30]: 11.7 µM
- TGI [31]: 71.1 µM
- TGI [32]: > 100 µM
- TGI [33]: > 100 µM
- TGI [34]: 59.6 µM
- TGI [35]: 49.7 µM
- TGI [36]: > 100 µM
- TGI [37]: 69 µM
- TGI [38]: 28.7 µM
- TGI [39]: 10.9 µM
- TGI [40]: 66.8 µM
- TGI [41]: 71.1 µM
- TGI [42]: > 100 µM
- TGI [43]: 56.8 µM
- TGI [44]: > 100 µM
- TGI [45]: 78 µM
- TGI [46]: 76.6 µM
- TGI [47]: 21.6 µM
- TGI [48]: > 100 µM
- TGI [49]: 45.1 µM
- TGI [50]: > 100 µM

Compound: COC(=O)C1=C(O)[C@H](C(=O)OC)C2(O)[C@@H](C(=O)OC)[C@H]1C[C@@H](c1ccc(OC(=O)n3ccnc3)cc1)[C@@H]2C(=O)OC
- GI50 [1]: 18.6 µM
- TGI [1]: 45.6 µM
- GI50 [2]: 15.2 µM
- TGI [2]: > 50 µM
- GI50 [3]: 15.9 µM
- TGI [3]: 42.6 µM
- GI50 [4]: 8.68 µM
- TGI [4]: 24.9 µM
- GI50 [5]: 12.7 µM
- TGI [5]: 41.6 µM
- GI50 [7]: 9.69 µM
- TGI [7]: 34.1 µM
- GI50 [8]: 11.7 µM
- TGI [8]: 42.9 µM
- GI50 [9]: 13.1 µM
- TGI [9]: 45.4 µM
- GI50 [51]: 9.63 µM
- TGI [51]: 18 µM
- GI50 [10]: 16.8 µM
- TGI [10]: > 50 µM
- GI50 [11]: 21 µM
- TGI [11]: > 50 µM
- GI50 [12]: 13.3 µM
- TGI [12]: > 50 µM
- GI50 [13]: 31.3 µM
- TGI [13]: > 50 µM
- GI50 [14]: 17.3 µM
- TGI [14]: > 50 µM
- GI50 [15]: 12.6 µM
- TGI [15]: 41.3 µM
- GI50 [17]: 6.62 µM
- TGI [17]: 25.4 µM
- GI50 [18]: 20.3 µM
- TGI [18]: > 50 µM
- GI50 [19]: 10.6 µM
- TGI [19]: 24.5 µM
- GI50 [52]: 13.8 µM
- TGI [52]: > 50 µM
- GI50 [20]: 30.3 µM
- TGI [20]: > 50 µM
- GI50 [22]: 18.4 µM
- TGI [22]: > 50 µM
- GI50 [23]: 14.8 µM
- TGI [23]: 48.6 µM
- GI50 [24]: 8.77 µM
- TGI [24]: 21.4 µM
- GI50 [26]: 13.9 µM
- TGI [26]: 25.6 µM
- GI50 [27]: 17 µM
- TGI [27]: > 50 µM
- GI50 [28]: 10.9 µM
- TGI [28]: 34.4 µM
- GI50 [29]: 16.1 µM
- TGI [29]: 30.7 µM
- GI50 [30]: 12.6 µM
- TGI [30]: > 50 µM
- GI50 [53]: 20.2 µM
- TGI [53]: > 50 µM
- GI50 [31]: 25.7 µM
- TGI [31]: > 50 µM
- GI50 [32]: 13.4 µM
- TGI [32]: 36.4 µM
- GI50 [33]: 22.4 µM
- TGI [33]: > 50 µM
- GI50 [34]: 18.1 µM
- TGI [34]: > 50 µM
- GI50 [54]: 11.8 µM
- TGI [54]: 26.7 µM
- GI50 [35]: 18.7 µM
- TGI [35]: > 50 µM
- GI50 [36]: 12.7 µM
- TGI [36]: 45.6 µM
- GI50 [37]: 8.44 µM
- TGI [37]: 21.3 µM
- GI50 [38]: 22.8 µM
- TGI [38]: > 50 µM
- GI50 [55]: 10.1 µM
- TGI [55]: 30.5 µM
- GI50 [39]: 12.7 µM
- TGI [39]: 36.7 µM
- GI50 [40]: 10.3 µM
- TGI [40]: 29.6 µM
- GI50 [41]: 11.4 µM
- TGI [41]: 30 µM
- GI50 [42]: 19.6 µM
- TGI [42]: > 50 µM
- GI50 [43]: 10.8 µM
- TGI [43]: > 50 µM
- GI50 [44]: 14.3 µM
- TGI [44]: > 50 µM
- GI50 [45]: 7.39 µM
- TGI [45]: 46.4 µM
- GI50 [46]: 36.8 µM
- TGI [46]: > 50 µM
- GI50 [47]: 17.9 µM
- TGI [47]: > 50 µM
- GI50 [48]: 16 µM
- TGI [48]: 39.8 µM
- GI50 [49]: 9.07 µM
- TGI [49]: 30.4 µM
- GI50 [50]: 8.87 µM
- TGI [50]: 17.8 µM

Compound: CN([O-])c1nc(N(C)[O-])nc(N2CCOCC2)n1.CN([O-])c1nc(N(C)[OH2+])nc(N2CCOCC2)n1.[Fe+3]
- GI50 [1]: > 100 µM
- TGI [1]: > 100 µM
- GI50 [56]: 0.0197 µM
- TGI [56]: > 100 µM
- GI50 [2]: > 100 µM
- TGI [2]: > 100 µM
- GI50 [3]: > 100 µM
- TGI [3]: > 100 µM
- GI50 [4]: > 100 µM
- TGI [4]: > 100 µM
- GI50 [5]: > 100 µM
- TGI [5]: > 100 µM
- GI50 [6]: > 100 µM
- TGI [6]: > 100 µM
- GI50 [7]: > 100 µM
- TGI [7]: > 100 µM
- GI50 [8]: > 100 µM
- TGI [8]: > 100 µM
- GI50 [9]: > 100 µM
- TGI [9]: > 100 µM
- GI50 [51]: > 100 µM
- TGI [51]: > 100 µM
- GI50 [10]: 96.6 µM
- TGI [10]: > 100 µM
- GI50 [11]: > 100 µM
- TGI [11]: > 100 µM
- GI50 [12]: > 100 µM
- TGI [12]: > 100 µM
- GI50 [13]: 89.6 µM
- TGI [13]: > 100 µM
- GI50 [14]: 0.487 µM
- TGI [14]: > 100 µM
- GI50 [15]: > 100 µM
- TGI [15]: > 100 µM
- GI50 [16]: > 100 µM
- TGI [16]: > 100 µM
- GI50 [17]: > 100 µM
- TGI [17]: > 100 µM
- GI50 [18]: 48.6 µM
- TGI [18]: > 100 µM
- GI50 [19]: 57.1 µM
- TGI [19]: > 100 µM
- GI50 [52]: 15.5 µM
- TGI [52]: 36 µM
- GI50 [20]: 41.5 µM
- TGI [20]: > 100 µM
- GI50 [21]: 54.9 µM
- TGI [21]: > 100 µM
- GI50 [22]: > 100 µM
- TGI [22]: > 100 µM
- GI50 [23]: > 100 µM
- TGI [23]: > 100 µM
- GI50 [24]: 61.8 µM
- TGI [24]: > 100 µM
- GI50 [25]: > 100 µM
- TGI [25]: > 100 µM
- GI50 [57]: > 100 µM
- TGI [57]: > 100 µM
- GI50 [26]: > 100 µM
- TGI [26]: > 100 µM
- GI50 [27]: 18.3 µM
- TGI [27]: 34.4 µM
- GI50 [28]: 23.8 µM
- TGI [28]: 94.7 µM
- GI50 [29]: > 100 µM
- TGI [29]: > 100 µM
- GI50 [30]: > 100 µM
- TGI [30]: > 100 µM
- GI50 [53]: > 100 µM
- TGI [53]: > 100 µM
- GI50 [31]: > 100 µM
- TGI [31]: > 100 µM
- GI50 [32]: > 100 µM
- TGI [32]: > 100 µM
- GI50 [33]: > 100 µM
- TGI [33]: > 100 µM
- GI50 [34]: > 100 µM
- TGI [34]: > 100 µM
- GI50 [54]: 68.3 µM
- TGI [54]: > 100 µM
- GI50 [35]: 57.4 µM
- TGI [35]: > 100 µM
- GI50 [36]: 57.6 µM
- TGI [36]: > 100 µM
- GI50 [37]: > 100 µM
- TGI [37]: > 100 µM
- GI50 [38]: 81.8 µM
- TGI [38]: > 100 µM
- GI50 [55]: 84.8 µM
- TGI [55]: > 100 µM
- GI50 [39]: > 100 µM
- TGI [39]: > 100 µM
- GI50 [40]: > 100 µM
- TGI [40]: > 100 µM
- GI50 [41]: > 100 µM
- TGI [41]: > 100 µM
- GI50 [42]: > 100 µM
- TGI [42]: > 100 µM
- GI50 [58]: > 100 µM
- TGI [58]: > 100 µM
- GI50 [44]: > 100 µM
- TGI [44]: > 100 µM
- GI50 [45]: > 100 µM
- TGI [45]: > 100 µM
- GI50 [46]: > 100 µM
- TGI [46]: > 100 µM
- GI50 [47]: 27.5 µM
- TGI [47]: > 100 µM
- GI50 [48]: > 100 µM
- TGI [48]: > 100 µM
- GI50 [49]: > 100 µM
- TGI [49]: > 100 µM
- GI50 [50]: > 100 µM
- TGI [50]: > 100 µM
